Source: patent publication US10696651B2, “Heterocyclic compound” (Takeda Pharmaceutical Company Limited, priority 2016, dated 2020)
Counter-ions that a name gives are not always drawn.

Each compound was assayed against T1, human GCN2 full-length protein (Homo sapiens, UniProt Q9P2K8) (assay: GCN2 enzyme inhibition assay (LanthaScreen TR-FRET)). Settings: GCN2 enzyme inhibitory activity at compound concentration of 3 μM; Table 3-1; read-out: inhibitory rate.
T1 construct: purchased Carna Biosciences, Inc
Format: biochemical
Method: GCN2 enzyme was preserved at -70° C. and used. The GCN2 enzyme inhibitory activity of the test compound was measured by the LanthaScreenTR-FRET (Time Resolved Fluorescence Resonance Energy Transfer) method (manufactured by ThermoFisher). […] Then, GCN2 enzyme solution diluted with the assay buffer was added by 2 μL to each well. The enzyme solution was not added to a part of the wells to give a control group. After incubation at room temperature for 1 hr, 570 μM ATP solution containing 390 nM […] physiological protein substrate (ThermoFisher) was added by 2 μL. After reaction at room temperature for 1 hr, TR-FRET Dilution Buffer (ThermoFisher) containing 4 nM Terbium-labeled anti-elF2alpha [[…]] antibody (ThermoFisher) dissolved therein was added by 2 μL to each well. After standing at room temperature for 1 hr, time decomposition fluorescence measurement was performed on platereader Envision (manufactured by PerkinElmer).

T1 sequence (Q9P2K8 whole entry): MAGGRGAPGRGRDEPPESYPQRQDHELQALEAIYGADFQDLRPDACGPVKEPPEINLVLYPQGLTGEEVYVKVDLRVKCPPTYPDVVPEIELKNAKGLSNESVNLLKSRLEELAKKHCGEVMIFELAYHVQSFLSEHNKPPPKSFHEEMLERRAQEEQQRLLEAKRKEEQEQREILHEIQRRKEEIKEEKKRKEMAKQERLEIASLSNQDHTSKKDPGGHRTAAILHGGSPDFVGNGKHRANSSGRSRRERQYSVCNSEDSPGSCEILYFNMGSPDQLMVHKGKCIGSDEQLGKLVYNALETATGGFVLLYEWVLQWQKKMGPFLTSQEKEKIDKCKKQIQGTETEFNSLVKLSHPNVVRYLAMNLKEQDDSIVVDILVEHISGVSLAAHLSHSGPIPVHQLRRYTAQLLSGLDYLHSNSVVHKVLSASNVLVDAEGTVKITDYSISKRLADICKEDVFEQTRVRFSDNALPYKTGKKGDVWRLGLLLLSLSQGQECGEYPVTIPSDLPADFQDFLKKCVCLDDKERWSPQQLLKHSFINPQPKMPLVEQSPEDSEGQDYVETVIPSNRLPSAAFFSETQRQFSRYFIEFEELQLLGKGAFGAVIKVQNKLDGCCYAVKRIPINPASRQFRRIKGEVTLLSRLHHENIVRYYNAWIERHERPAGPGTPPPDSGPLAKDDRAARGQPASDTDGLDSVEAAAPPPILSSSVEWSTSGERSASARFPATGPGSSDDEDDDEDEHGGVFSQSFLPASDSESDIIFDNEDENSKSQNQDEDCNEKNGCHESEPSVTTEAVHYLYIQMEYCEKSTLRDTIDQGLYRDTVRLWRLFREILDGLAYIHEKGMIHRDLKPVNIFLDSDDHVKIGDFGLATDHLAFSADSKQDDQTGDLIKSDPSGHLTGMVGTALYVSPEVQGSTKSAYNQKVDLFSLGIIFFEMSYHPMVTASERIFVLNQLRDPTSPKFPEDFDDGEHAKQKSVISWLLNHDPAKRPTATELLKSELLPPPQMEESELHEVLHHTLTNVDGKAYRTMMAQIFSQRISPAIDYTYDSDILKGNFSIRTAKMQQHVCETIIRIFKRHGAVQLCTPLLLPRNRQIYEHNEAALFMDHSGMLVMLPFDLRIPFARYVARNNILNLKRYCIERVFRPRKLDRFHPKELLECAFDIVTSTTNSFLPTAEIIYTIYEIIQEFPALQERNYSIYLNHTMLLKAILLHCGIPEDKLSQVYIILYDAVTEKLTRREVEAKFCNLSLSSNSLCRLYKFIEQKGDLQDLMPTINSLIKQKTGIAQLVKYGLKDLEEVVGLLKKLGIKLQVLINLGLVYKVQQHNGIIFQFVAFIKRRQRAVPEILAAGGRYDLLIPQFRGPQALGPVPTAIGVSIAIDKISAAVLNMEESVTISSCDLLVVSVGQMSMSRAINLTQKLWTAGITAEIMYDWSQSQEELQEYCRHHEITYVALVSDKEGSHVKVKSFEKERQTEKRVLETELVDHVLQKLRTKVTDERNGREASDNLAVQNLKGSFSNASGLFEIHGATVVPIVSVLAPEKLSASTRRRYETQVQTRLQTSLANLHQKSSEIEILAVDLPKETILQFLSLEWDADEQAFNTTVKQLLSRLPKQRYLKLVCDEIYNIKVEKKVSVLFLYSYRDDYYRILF

Row | inhibition at 3 µM [%] | Structure (SMILES)
1 | 99 | Cc1ncc(Cl)cc1S(=O)(=O)Nc1ccc(F)c(C#Cc2cnc(N)nc2)c1F [Example 3, N-(3-((2-aminopyrimidin-5-yl)ethynyl)-2,4-difluorophenyl)-5-chloro-2-methylpyridine-3-sulfonamide]
2 | 99 | Nc1ncc(C#Cc2c(F)ccc(NS(=O)(=O)c3cc(Cl)ccc3C(F)(F)F)c2F)cn1 [Example 6, N-(3-((2-aminopyrimidin-5-yl)ethynyl)-2,4-difluorophenyl)-5-chloro-2-(trifluoromethyl)benzenesulfonamide]
3 | 99 | Nc1ncc(C#Cc2c(F)ccc(NS(=O)(=O)c3cc(Cl)cc4c3OCC4)c2F)cn1 [Example 9, N-(3-((2-aminopyrimidin-5-yl)ethynyl)-2,4-difluorophenyl)-5-chloro-2,3-dihydro-1-benzofuran-7-sulfonamide]
4 | 99 | O=S(=O)(Nc1ccc(F)c(C#Cc2cnc(NC3CC3)nc2)c1F)c1cc(Cl)ccc1Cl [Example 11, 2,5-dichloro-N-(3-((2-(cyclopropylamino)pyrimidin-5-yl)ethynyl)-2,4-difluorophenyl)benzenesulfonamide TFA Salt]
5 | 99 | Nc1ncc(C#Cc2c(F)ccc(NS(=O)(=O)c3cc(Cl)ccc3OC(F)(F)F)c2F)cn1 [Example 12, N-(3-((2-aminopyrimidin-5-yl)ethynyl)-2,4-difluorophenyl)-5-chloro-2-(trifluoromethoxy)benzenesulfonamide]
6 | 100 | O=S(=O)(Nc1ccc(F)c(C#Cc2cnc(NC3CCOC3)nc2)c1F)c1cc(Cl)ccc1Cl (stereo not drawn) [Example 16, 2,5-dichloro-N-(2,4-difluoro-3-((2-(tetrahydrofuran-3-ylamino)pyrimidin-5-yl)ethynyl)phenyl)benzenesulfonamide TFA Salt]
7 | 99 | Nc1ncc(C#Cc2c(F)ccc(NS(=O)(=O)c3cc(Cl)ccc3OC(F)F)c2F)cn1 [Example 21, N-(3-((2-aminopyrimidin-5-yl)ethynyl)-2,4-difluorophenyl)-5-chloro-2-(difluoromethoxy)benzenesulfonamide]
8 | 99 | C[C@H](CO)Nc1ncc(C#Cc2c(F)ccc(NS(=O)(=O)c3cc(Cl)ccc3Cl)c2F)cn1 [Example 22, 2,5-dichloro-N-(2,4-difluoro-3-((2-(((2R)-1-hydroxypropan-2-yl)amino)pyrimidin-5-yl)ethynyl)phenyl)benzenesulfonamide TFA Salt]
9 | 95 | Nc1ncc(C#Cc2c(F)ccc(NS(=O)(=O)c3cc(Cl)cc(Cl)c3)c2F)cn1 [Example 27, N-(3-((2-aminopyrimidin-5-yl)ethynyl)-2,4-difluorophenyl)-3,5-dichlorobenzenesulfonamide]
10 | 99 | O=S(=O)(Nc1ccc(F)c(C#Cc2cnc(NCCCO)nc2)c1F)c1cc(Cl)ccc1Cl [Example 28, 2,5-dichloro-N-(2,4-difluoro-3-((2-((3-hydroxypropyl)amino)pyrimidin-5-yl)ethynyl)phenyl)benzenesulfonamide TFA Salt]
11 | 99 | N#Cc1ccc(Cl)cc1S(=O)(=O)Nc1ccc(F)c(C#Cc2cnc(N)nc2)c1F [Example 29, N-(3-((2-aminopyrimidin-5-yl)ethynyl)-2,4-difluorophenyl)-5-chloro-2-cyanobenzenesulfonamide]
12 | 98 | CCNc1ncc(C#Cc2c(F)ccc(NS(=O)(=O)c3cc(Cl)ccc3Cl)c2F)cn1 [Example 30, 2,5-dichloro-N-(3-((2-(ethylamino)pyrimidin-5-yl)ethynyl)-2,4-difluorophenyl)benzenesulfonamide TFA Salt]
13 | 99 | O=S(=O)(Nc1ccc(F)c(C#Cc2cnc(N[C@H]3CC[C@H](O)CC3)nc2)c1F)c1cc(Cl)ccc1Cl [Example 32, 2,5-dichloro-N-(2,4-difluoro-3-((2-((trans-4-hydroxycyclohexyl)amino)pyrimidin-5-yl)ethynyl)phenyl)benzenesulfonamide TFA Salt]
14 | 98 | Nc1ncc(C#Cc2c(F)ccc(NS(=O)(=O)c3cc(Cl)ccc3Cl)c2F)c(N)n1 [Example 34, 2,5-dichloro-N-(3-((2,4-diaminopyrimidin-5-yl)ethynyl)-2,4-difluorophenyl)benzenesulfonamide]
15 | 95 | Nc1ncc(C#Cc2c(F)ccc(NS(=O)(=O)c3cc(C(F)(F)F)ccc3Cl)c2F)cn1 [Example 35, N-(3-((2-aminopyrimidin-5-yl)ethynyl)-2,4-difluorophenyl)-2-chloro-5-(trifluoromethyl)benzenesulfonamide]
16 | 99 | O=S(=O)(Nc1ccc(F)c(C#Cc2cnc(NCCO)nc2)c1F)c1cc(Cl)ccc1Cl [Example 36, 2,5-dichloro-N-(2,4-difluoro-3-((2-((2-hydroxyethyl)amino)pyrimidin-5-yl)ethynyl)phenyl)benzenesulfonamide TFA Salt]
17 | 100 | Cc1ncc(Cl)cc1S(=O)(=O)Nc1ccc(F)c(C#Cc2cnc(NC(C)C)nc2)c1F [Example 105, 5-chloro-N-(2,4-difluoro-3-((2-(isopropylamino)pyrimidin-5-yl)ethynyl)phenyl)-2-methylpyridine-3-sulfonamide]
18 | 99 | COc1ncc(Cl)cc1S(=O)(=O)Nc1ccc(F)c(C#Cc2cnc(NC(C)C)nc2)c1F [Example 106, 5-chloro-N-(2,4-difluoro-3-((2-(isopropylamino)pyrimidin-5-yl)ethynyl)phenyl)-2-methoxypyridine-3-sulfonamide]
19 | 99 | COc1ncc(Cl)cc1S(=O)(=O)Nc1ccc(F)c(C#Cc2cnc(NCC(C)(C)O)nc2)c1F [Example 107, 5-chloro-N-(2,4-difluoro-3-((2-((2-hydroxy-2-methylpropyl)amino)pyrimidin-5-yl)ethynyl)phenyl)-2-methoxypyridine-3-sulfonamide]
20 | 99 | COc1ncc(Cl)cc1S(=O)(=O)Nc1ccc(F)c(C#Cc2cnc(NC(C)(C)CO)nc2)c1F [Example 108, 5-chloro-N-(2,4-difluoro-3-((2-((1-hydroxy-2-methylpropan-2-yl)amino)pyrimidin-5-yl)ethynyl)phenyl)-2-methoxypyridine-3-sulfonamide]
21 | 99 | COc1ncc(Cl)cc1S(=O)(=O)Nc1ccc(F)c(C#Cc2cnc(N)nn2)c1F [Example 109, N-(3-((3-amino-1,2,4-triazin-6-yl)ethynyl)-2,4-difluorophenyl)-5-chloro-2-methoxypyridine-3-sulfonamide]
22 | 100 | COc1ncc(Cl)cc1S(=O)(=O)Nc1ccc(F)c(C#Cc2cnc(N)c(C)n2)c1F [Example 110, N-(3-((5-amino-6-methylpyrazin-2-yl)ethynyl)-2,4-difluorophenyl)-5-chloro-2-methoxypyridine-3-sulfonamide]
23 | 97 | Cc1cc(C)cc(S(=O)(=O)Nc2ccc(F)c(C#Cc3cnc4[nH]ncc4c3)c2F)c1 [Example 111, N-(2,4-difluoro-3-(1H-pyrazolo[3,4-b]pyridin-5-ylethynyl)phenyl)-3,5-dimethylbenzenesulfonamide TFA Salt]
24 | 99 | Cc1ccc(C)c(S(=O)(=O)Nc2ccc(F)c(C#Cc3cnc4[nH]ncc4c3)c2F)c1 [Example 112, N-(2,4-difluoro-3-(1H-pyrazolo[3,4-b]pyridin-5-ylethynyl)phenyl)-2,5-dimethylbenzenesulfonamide TFA Salt]
